Data on seven compounds can be found in publication PMC5477544, “Structural and mechanistic basis of differentiated inhibitors of the acute pancreatitis target kynurenine-3-monooxygenase” (Nature Communications, 2017).

Each structure is given as a SMILES string. Like-named read-outs stand apart in the source and are kept apart here.

What all share (format): biochemical
For experiment [1], the target named is T1, human KMO (Homo sapiens, UniProt O15229).
T1 construct: full-length human KMO was cloned as an N-terminal GST fusion; GST (N); made in house; host or cells: Sf9 insect cells, used as a membrane fraction
Nature of the experiment: Rapidfire mass spectrometry IC50 assay, isolated human KMO. The method, then: For the expression and isolation of human KMO membranes, full-length human KMO was cloned as an N-terminal GST fusion, expressed in Sf9 cells and isolated as a membrane fraction as described in Lowe et al.[12]
(§1) Inhibitor IC50 values against isolated human KMO were determined using a Rapidfire mass spectrometry assay as described in Lowe et al.[12] utilizing the Sf9 cell expressed human KMO described above. The inhibitor IC50 values against Pf-KMO were determined using an analogous Rapidfire mass spectrometry assay, utilizing the purified protein described above.

In experiment [2] the target is T2, Pf KMO (Pseudomonas fluorescens, UniProt Q84HF5, C252S/C461S).
T2 construct: Success was made possible by the use of a full-length P. fluorescens orthologue; made in house; host or cells: Escherichia coli BL21 (DE3)
Nature of the experiment: Rapidfire mass spectrometry IC50 assay, Pf-KMO. As to conditions: from inhibition curves of Fig. 3b; [Pf-KMO]=1 nM, [L-Kyn]=10 μM, [NADPH]=200 μM. The method, then:
as §1

Experiment [3] deals with T1, human KMO. Put plainly: Association kinetics (onset of inhibition timecourses). Also noted: steady-state rate Vs, onset of inhibition timecourse: unit not given here. Conditions: for kobs, onset of inhibition: 200 μM NADPH, 10 μM L-Kyn; for kobs, onset of inhibition at sub-saturating NADPH: 10 nM GSK775(B2), regeneration system. As for the experimental part: For the association kinetics assays, measurements were performed in a buffer of 50 mM Hepes pH 7.5, 2 mM DTT, 1 mM EDTA, 0.1 mM Chaps. Reactions were performed at ambient temperature, by addition of human KMO enzyme to a mixture of L-Kyn and NADPH containing the test inhibitor. […] Aliquots of the mixtures were quenched into 0.5% TFA in water. L-Kyn and 3-HK levels in the quenched samples were measured using the Rapidfire mass spectrometry method described in Lowe et al.[12] Calibration curves for L-Kyn and 3-HK were used to correct for the lower detection response for 3-HK. Per cent turnover and resulting concentration of 3-HK were calculated for each time point in Excel. kobs values for onset of inhibition were obtained by fitting individual timecourses to equation 1 where t=time, vs=steady-state rate, vi=initial rate and c=background[43]. vi was fixed at the uninhibited rate obtained from the slope of the timecourse in the absence of inhibitor.

The target in experiment [4] is T1, human KMO. Put plainly: Dissociation kinetics (recovery of activity timecourses) and full kinetic analysis. Also noted: steady-state rate Vs after equilibration of inhibitor binding, dissociation timecourse: unit not given here. The method, then: The dissociation kinetics measurements were performed in a buffer of 50 mM Hepes pH 7.5, 2 mM DTT, 1 mM EDTA, 0.1 mM Chaps. […] Aliquots of the reaction mixtures were quenched into 0.5% TFA in water. 3-HK levels in the quenched samples were measured using the Rapidfire mass spectrometry assay described in Lowe et al.[12] A calibration curve for 3-HK was used to convert the data to concentration of 3-HK at each time point. kobs values for recovery of activity were obtained by fitting individual timecourses to equation 1 with vi (initial rate) set to zero.
In this analysis, inhibitor kon was fixed at the value obtained in the association kinetic studies, and kcat and inhibitor koff were the two variable parameters.

In experiment [5] the target is T1, human KMO. Nature of the experiment: Hydrogen peroxide formation, HRP/Amplex Red assay, human KMO. As for the experimental part: (§2) Measurements were performed in a buffer of 50 mM Hepes pH 7.5, 0.1 mM Chaps. A two-fold dilution series of test inhibitor and control compounds was prepared from DMSO solutions using the Hewlett-Packard D300 digital dispenser in a 384-well plate and normalized to a final DMSO concentration of 1% in the assay. 10 μl of 80 μg ml^−1 human KMO or 40 nM Pf-KMO were added. After 15 min incubation, 10 μl of a substrate/detection mix (2 U ml^−1 HRP, 20 μM Amplex Red, 40 μM NADPH) were added and the plate was read kinetically on a Tecan M1000 fluorescent plate reader with excitation wavelength 530 nm and emission wavelength 580 nm. A calibration curve comprising a two-fold dilution series of resorufin from 20 μM top concentration was included on the plate, and used to convert assay data to concentration of resorufin formed. Initial rate (μM min^−1) was extracted by linear fitting of the early region of each timecourse. Dose responses were fitted to a four parameter logistic expression where appropriate.

In experiment [6] the target is T2, Pf KMO. Nature of the experiment: Hydrogen peroxide formation, HRP/Amplex Red assay, Pf-KMO. As for the experimental part: as §2
Experiment [7] concerns the target T2, Pf KMO. Nature of the experiment: L-Kyn KM determination, Rapidfire mass spectrometry, Pf-KMO. As for the experimental part:
(§3) The KM of kynurenine for human KMO and for Pf KMO were measured as described in Lowe et al.[12]. The KM of NADPH for human KMO was measured using a regeneration system as described in Lowe et al.[12], with a kynurenine concentration of 10 μM.

Experiment [8] concerns the target T1, human KMO. Nature of the experiment: NADPH KM determination with regeneration system, human KMO. Conditions: 10 M Kynurenine (so in the source). As for the experimental part:
as §3

[9] abbreviates: from inhibition curves of Fig. 3b, read-out: IC50 Human KMO.

The term IC50 denotes the midpoint of a concentration-inhibition curve. The term kcat denotes the maximal rate divided by the concentration of active sites. What is called Km is the concentration of substrate that gives half-maximal velocity.

T2 sequence (Q84HF5 whole entry C252S/C461S): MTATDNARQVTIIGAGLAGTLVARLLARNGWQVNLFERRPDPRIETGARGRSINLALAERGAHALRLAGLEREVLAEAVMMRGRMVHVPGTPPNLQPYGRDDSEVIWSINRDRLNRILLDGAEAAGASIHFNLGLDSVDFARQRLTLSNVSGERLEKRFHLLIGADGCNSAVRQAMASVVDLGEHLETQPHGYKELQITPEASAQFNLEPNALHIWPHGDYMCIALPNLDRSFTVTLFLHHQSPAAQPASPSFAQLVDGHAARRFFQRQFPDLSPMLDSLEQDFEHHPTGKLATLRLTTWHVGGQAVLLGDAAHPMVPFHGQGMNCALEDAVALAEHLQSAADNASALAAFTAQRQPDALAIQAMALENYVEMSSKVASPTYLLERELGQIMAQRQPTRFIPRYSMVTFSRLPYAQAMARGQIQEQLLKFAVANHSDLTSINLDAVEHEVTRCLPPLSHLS
T1 sequence (O15229 whole entry, the tested form may be a part): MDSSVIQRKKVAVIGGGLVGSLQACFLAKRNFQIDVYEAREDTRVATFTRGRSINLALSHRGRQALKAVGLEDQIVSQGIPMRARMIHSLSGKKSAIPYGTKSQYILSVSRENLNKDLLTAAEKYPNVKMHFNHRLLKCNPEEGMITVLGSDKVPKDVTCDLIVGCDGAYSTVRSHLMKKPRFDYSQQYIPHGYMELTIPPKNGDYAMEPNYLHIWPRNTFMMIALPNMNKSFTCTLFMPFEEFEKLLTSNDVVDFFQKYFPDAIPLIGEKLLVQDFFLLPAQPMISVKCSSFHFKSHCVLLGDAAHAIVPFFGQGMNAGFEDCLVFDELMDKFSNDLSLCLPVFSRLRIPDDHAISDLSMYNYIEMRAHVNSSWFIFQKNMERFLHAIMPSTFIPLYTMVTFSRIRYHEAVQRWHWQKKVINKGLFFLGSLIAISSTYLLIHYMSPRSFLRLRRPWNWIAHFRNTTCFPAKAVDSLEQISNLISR

Consider `C[C@@H](Oc1cc2onc(CCC(=O)O)c2cc1Cl)c1ccccn1` [GSK065], for which the “mean slope of inhibition curve” value in experiment [1] (human enzyme) stood at 1.9.
Regarding `Cc1ccc([C@@H](C)Oc2cc3onc(CCC(=O)O)c3cc2Cl)nn1` [GSK366], the IC50 in experiment [1] (setting [9]) is 2.3 nM; in experiment [1] (human enzyme, mean of n determinations given in text, read-out: IC50 (mean potency, in vitro activity)), 2 nM; in experiment [2], 0.7 nM. Besides, the “mean slope of inhibition curve” value in experiment [1] (human enzyme) stood at 1.9. Further, in experiment [3] (5 nM inhibitor), the “kobs, onset of inhibition” value amounted to 0.031 min⁻¹.
Consider `Cc1cc2oc(=O)n(CCC(=O)O)c2cc1Cl` [GSK428], for which the IC50 in experiment [1] (setting [9]) was determined as 10 nM; in experiment [2], 60 nM. Further, the “Effect of [L-Kyn] on IC50 (mode of inhibition)” value in experiment [1] (human KMO) is recorded as “linear relationship”. Further, the “steady-state rate Vs, onset of inhibition timecourse” value in experiment [3] (10 nM GSK428(A2), last 5 minutes of timecourse, uninhibited Vi = 0.022) is on record as 0.004. Also, in experiment [4] (last 5 minutes of timecourse in presence of GSK428(A2)), the “steady-state rate Vs after equilibration of inhibitor binding, dissociation timecourse” value was 0.147. Moreover, the “Generation of hydrogen peroxide” value in experiment [5] and in experiment [6] was “stimulate peroxide (H2O2) production” in each case.
Turning to `C[C@@H](Oc1cc2oc(=O)n(CCC(=O)O)c2cc1Cl)c1ccccn1` [GSK775], the “kobs, onset of inhibition at sub-saturating NADPH” value stood at 0.035 min⁻¹ in experiment [3] (1 uM NADPH), 0.013 min⁻¹ in experiment [3] (0.3 M NADPH (so in the source)) and 0.069 min⁻¹ in experiment [3] (5 M NADPH (so in the source)). Further, the “kobs, onset of inhibition” value in experiment [3] (10 nM inhibitor) was 0.062 min⁻¹. Further, the “onset kobs, times slower than for GSK428(A2)” value in experiment [3] (same concentration conditions) is “at least 10 times”. Besides, the “dissociation half life of KMO-inhibitor complex” value in experiment [4] (human KMO) is on record as about 2 h.
On to `O=C(O)CCn1c(=O)oc2cc(OCc3ccccn3)c(Cl)cc21` [GSK891], for which the IC50 in experiment [1] (setting [9]) worked out at 3.6 nM; in experiment [2], 4.3 nM.
As to `Nc1ccccc1C(=O)CC(N)C(=O)O` [L-Kyn, L-kynurenine], the kcat in experiment [7] (200 μM NADPH) was determined as 2.3 s⁻¹. In experiment [7] (read-out: L-Kyn KM, 200 μM NADPH), the Km came out at 7 µM.
For `NC(=O)C1=CN([C@@H]2O[C@H](COP(=O)(O)OP(=O)(O)OC[C@H]3O[C@@H](n4cnc5c(N)ncnc54)[C@H](OP(=O)(O)O)[C@@H]3O)[C@@H](O)[C@H]2O)C=CC1` [NADPH], in experiment [8], the Km came to 1 µM.
